Data on 19 compounds can be found in US12384770B2, “Heterocyclic compound” (Takeda Pharmaceutical Company Limited, priority 2019, dated 2025).

One experiment has as its target T1, HDAC6 enzyme (Homo sapiens, UniProt Q9UBN7).
T1 construct: HDAC6 enzyme prepared by transducing full length HDAC6 gene into Sf-9 insect cells; GST; purchased SignalChem; host or cells: Sf-9 insect cells
T1 sequence (Q9UBN7 1-1215): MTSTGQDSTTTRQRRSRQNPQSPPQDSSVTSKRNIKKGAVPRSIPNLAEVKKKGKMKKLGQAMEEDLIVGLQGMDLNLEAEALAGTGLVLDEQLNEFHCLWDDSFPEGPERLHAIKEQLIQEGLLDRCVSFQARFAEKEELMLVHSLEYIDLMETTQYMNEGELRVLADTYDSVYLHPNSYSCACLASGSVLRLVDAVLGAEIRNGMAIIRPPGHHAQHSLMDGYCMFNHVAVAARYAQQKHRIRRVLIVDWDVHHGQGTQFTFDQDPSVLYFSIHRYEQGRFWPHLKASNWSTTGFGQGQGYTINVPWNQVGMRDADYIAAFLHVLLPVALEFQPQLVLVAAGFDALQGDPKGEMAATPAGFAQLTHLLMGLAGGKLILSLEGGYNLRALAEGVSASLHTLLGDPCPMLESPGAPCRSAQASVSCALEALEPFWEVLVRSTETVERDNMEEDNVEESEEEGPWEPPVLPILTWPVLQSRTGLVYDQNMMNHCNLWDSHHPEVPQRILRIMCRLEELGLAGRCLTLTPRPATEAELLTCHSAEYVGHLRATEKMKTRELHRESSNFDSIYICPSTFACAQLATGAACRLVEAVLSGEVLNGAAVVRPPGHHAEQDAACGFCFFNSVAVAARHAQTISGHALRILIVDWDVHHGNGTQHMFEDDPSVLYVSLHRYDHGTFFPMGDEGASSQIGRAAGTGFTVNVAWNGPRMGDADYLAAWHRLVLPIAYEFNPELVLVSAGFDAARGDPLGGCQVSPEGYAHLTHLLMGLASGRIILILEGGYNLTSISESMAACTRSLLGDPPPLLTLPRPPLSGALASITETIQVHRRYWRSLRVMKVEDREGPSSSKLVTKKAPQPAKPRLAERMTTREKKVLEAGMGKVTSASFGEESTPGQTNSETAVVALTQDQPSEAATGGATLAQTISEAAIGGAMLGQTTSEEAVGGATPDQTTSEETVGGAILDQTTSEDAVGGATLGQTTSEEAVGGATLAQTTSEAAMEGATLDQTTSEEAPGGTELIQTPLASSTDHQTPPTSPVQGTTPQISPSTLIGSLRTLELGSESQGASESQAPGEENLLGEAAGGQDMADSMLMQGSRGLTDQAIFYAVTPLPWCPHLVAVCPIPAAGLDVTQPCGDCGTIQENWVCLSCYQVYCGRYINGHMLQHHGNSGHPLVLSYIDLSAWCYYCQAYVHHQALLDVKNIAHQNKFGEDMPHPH
Briefly: HDAC6 enzyme inhibitory assay (HDAC-Glo I/II Assay kit). It counts as biochemical. The note with it: wells without enzyme = 100% inhibition. Summed up:
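Full-length GST-purified HDAC6 from Sf-9 cells preincubated with compound 60 min at room temperature in Tris-HCl pH 7.5 buffer with MgCl2, KCl, NaCl, glutathione, Tween-20. Substrate-developer reaction 20 min, luminescence read; no-enzyme wells set as 100% inhibition.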
On to `O=C1c2cc(-c3nnc(C(F)F)o3)ccc2CN1[C@H](c1ccc(F)nc1)[C@@H](O)c1ccc(F)cc1` (single isomer, unassigned) [Example 35, 6-[5-(difluoromethyl)-1,3,4-oxadiazol-2-yl]-2-[(1R*,2S*)-2-(4-fluorophenyl)-1-(6-fluoropyridin-3-yl)-2-hydroxyethyl]-2,3-dihydro-1H-isoindol-1-one], for which the “HDAC6 inhibitory rate (%) (10 μM)” value was 100%.

With `O=C1c2cc(-c3nnc(C(F)F)o3)ccc2CN1[C@H](c1ccc(F)cc1)[C@@H](O)c1ccccc1` (single isomer, unassigned) [Example 46, 6-[5-(difluoromethyl)-1,3,4-oxadiazol-2-yl]-2-[(1R*,2S*)-1-(4-fluorophenyl)-2-hydroxy-2-phenylethyl]-2,3-dihydro-1H-isoindol-1-one], the “HDAC6 inhibitory rate (%) (10 μM)” value stood at 100%. Consider `O=C1c2cc(-c3nnc(C(F)F)o3)ccc2CN1[C@H](c1ccc(F)c(F)c1)[C@@H](O)c1ccccn1` (single isomer, unassigned) [Example 51, 6-[5-(difluoromethyl)-1,3,4-oxadiazol-2-yl]-2-[(1R*,2R*)-1-(3,4-difluorophenyl)-2-hydroxy-2-(pyridin-2-yl)ethyl]-2,3-dihydro-1H-isoindol-1-one], for which the “HDAC6 inhibitory rate (%) (10 μM)” value was determined as 99%. Same read-out and setting: the result for `O=C1c2cc(-c3nnc(C(F)F)o3)ccc2CN1[C@H](c1ccccn1)[C@@H](O)c1cccc(F)c1` (single isomer, unassigned) [Example 62, 6-[5-(difluoromethyl)-1,3,4-oxadiazol-2-yl]-2-[(1R*,2S*)-2-(3-fluorophenyl)-2-hydroxy-1-(pyridin-2-yl)ethyl]-2,3-dihydro-1H-isoindol-1-one] reads 100%.

Still in this experiment, the particulars now being: wells without enzyme = 100% inhibition, 10 µM.
For `O=C1c2cc(-c3nnc(C(F)F)o3)ccc2CN1[C@H](c1ccccn1)[C@@H](O)c1ccc(F)cc1` (single isomer, unassigned) [Example 37, 6-[5-(difluoromethyl)-1,3,4-oxadiazol-2-yl]-2-[(1R*,2S*)-2-(4-fluorophenyl)-2-hydroxy-1-(pyridin-2-yl)ethyl]-2,3-dihydro-1H-isoindol-1-one], the “HDAC6 inhibitory rate (%) (10 μM)” value was 100%. In the case of `O=C1c2cc(-c3nnc(C(F)F)o3)ccc2CN1[C@H](c1ccccc1)[C@@H](O)c1ccccn1` (single isomer, unassigned) [Example 48, 6-[5-(difluoromethyl)-1,3,4-oxadiazol-2-yl]-2-[(1R*,2R*)-2-hydroxy-1-phenyl-2-(pyridin-2-yl)ethyl]-2,3-dihydro-1H-isoindol-1-one], the “HDAC6 inhibitory rate (%) (10 μM)” value was found to be 100%. Still for that read-out and setting: the result for `O=C1c2cc(-c3nnc(C(F)F)o3)ccc2CN1[C@H](c1ccc(F)cc1)[C@@H](O)c1cccnc1` (single isomer, unassigned) [Example 52, 6-[5-(difluoromethyl)-1,3,4-oxadiazol-2-yl]-2-[(1R*,2S*)-1-(4-fluorophenyl)-2-hydroxy-2-(pyridin-3-yl)ethyl]-2,3-dihydro-1H-isoindol-1-one] reads 100%; that for `O=C1c2cc(-c3nnc(C(F)F)o3)ccc2CN1[C@H](c1ccc(F)cn1)[C@@H](O)c1ccccn1` (single isomer, unassigned) [Example 60], 99%.

Consider `O=C1c2cc(-c3nnc(C(F)F)o3)ccc2CN1[C@H](c1ccc(F)cn1)[C@@H](O)c1cccc(F)n1` (single isomer, unassigned) [Example 67, 6-[5-(difluoromethyl)-1,3,4-oxadiazol-2-yl]-2-[(1R*,2R*)-1-(5-fluoropyridin-2-yl)-2-(6-fluoropyridin-2-yl)-2-hydroxyethyl]-2,3-dihydro-1H-isoindol-1-one], for which the “HDAC6 inhibitory rate (%) (10 μM)” value is 99%.

The experiment is the same for the next values; noted with them: wells without enzyme = 100% inhibition, read-out: HDAC6 inhibitory rate (%) (10 μM).
`O=C1c2cc(-c3nnc(C(F)F)o3)ccc2CN1[C@H](c1ccccn1)[C@@H](O)c1ccc(F)cc1` (single isomer, unassigned) [Example 36, 6-[5-(difluoromethyl)-1,3,4-oxadiazol-2-yl]-2-[(1R*,2S*)-2-(4-fluorophenyl)-2-hydroxy-1-(pyridin-2-yl)ethyl]-2,3-dihydro-1H-isoindol-1-one]: the inhibition at 10 µM is 101%.

With `O=C1c2cc(-c3nnc(C(F)F)o3)ccc2CN1[C@H](c1ccc(F)cc1)[C@@H](O)c1ccccc1` (single isomer, unassigned) [Example 45, 6-[5-(difluoromethyl)-1,3,4-oxadiazol-2-yl]-2-[(1R*,2S*)-1-(4-fluorophenyl)-2-hydroxy-2-phenylethyl]-2,3-dihydro-1H-isoindol-1-one], the inhibition at 10 µM was found to be 100%. Turning to `O=C1c2cc(-c3nnc(C(F)F)o3)ccc2CN1[C@H](c1ccccc1)[C@@H](O)c1ccccn1` (single isomer, unassigned) [Example 47, 6-[5-(difluoromethyl)-1,3,4-oxadiazol-2-yl]-2-[(1R*,2R*)-2-hydroxy-1-phenyl-2-(pyridin-2-yl)ethyl]-2,3-dihydro-1H-isoindol-1-one], the inhibition at 10 µM was 99%.

Turning to `O=C1c2cc(-c3nnc(C(F)F)o3)ccc2CN1[C@H](c1ccc(F)cc1)[C@@H](O)c1cccnc1` (single isomer, unassigned) [Example 49, 6-[5-(difluoromethyl)-1,3,4-oxadiazol-2-yl]-2-[(1R*,2S*)-1-(4-fluorophenyl)-2-hydroxy-2-(pyridin-3-yl)ethyl]-2,3-dihydro-1H-isoindol-1-one], the inhibition at 10 µM came out at 99%.

Regarding `O=C1c2cc(-c3nnc(C(F)F)o3)ccc2CN1[C@H](c1ccc(F)c(F)c1)[C@@H](O)c1ccccn1` (single isomer, unassigned) [Example 50, 6-[5-(difluoromethyl)-1,3,4-oxadiazol-2-yl]-2-[(1R*,2R*)-1-(3,4-difluorophenyl)-2-hydroxy-2-(pyridin-2-yl)ethyl]-2,3-dihydro-1H-isoindol-1-one], the inhibition at 10 µM turned out to be 99%. The same measure, in the same setting: the result for `O=C1c2cc(-c3nnc(C(F)F)o3)ccc2CN1[C@H](c1ccc(F)cc1)[C@@H](O)c1ccc(C(F)(F)F)nc1` (single isomer, unassigned) [Example 54, 6-[5-(difluoromethyl)-1,3,4-oxadiazol-2-yl]-2-{(1R*,2S*)-1-(4-fluorophenyl)-2-hydroxy-2-[6-(trifluoromethyl)pyridin-3-yl]ethyl}-2,3-dihydro-1H-isoindol-1-one] reads 100%. Same read-out and setting: the result for `O=C1c2cc(-c3nnc(C(F)F)o3)ccc2CN1[C@H](c1ccc(F)cn1)[C@@H](O)c1ccccn1` (single isomer, unassigned) [Example 59, 6-[5-(difluoromethyl)-1,3,4-oxadiazol-2-yl]-2-[(1R*,2R*)-1-(5-fluoropyridin-2-yl)-2-hydroxy-2-(pyridin-2-yl)ethyl]-2,3-dihydro-1H-isoindol-1-one] reads 100%; that for `O=C1c2cc(-c3nnc(C(F)F)o3)ccc2CN1[C@H](c1ccccn1)[C@@H](O)c1cccc(F)c1` (single isomer, unassigned) [Example 61, 6-[5-(difluoromethyl)-1,3,4-oxadiazol-2-yl]-2-[(1R*,2S*)-2-(3-fluorophenyl)-2-hydroxy-1-(pyridin-2-yl)ethyl]-2,3-dihydro-1H-isoindol-1-one], 100%. Still for that read-out and setting: the result for `O=C1c2cc(-c3nnc(C(F)F)o3)ccc2CN1[C@H](c1ccc(F)cn1)[C@@H](O)c1cccc(F)n1` (single isomer, unassigned) [Example 66, 6-[5-(difluoromethyl)-1,3,4-oxadiazol-2-yl]-2-[(1R*,2R*)-1-(5-fluoropyridin-2-yl)-2-(6-fluoropyridin-2-yl)-2-hydroxyethyl]-2,3-dihydro-1H-isoindol-1-one] reads 100%; that for `O=C1c2cc(-c3nnc(C(F)F)o3)ccc2CN1[C@H](c1ncccn1)[C@@H](O)c1cccc(F)c1` (single isomer, unassigned) [Example 68, 6-[5-(difluoromethyl)-1,3,4-oxadiazol-2-yl]-2-[(1R*,2S*)-2-(3-fluorophenyl)-2-hydroxy-1-(pyrimidin-2-yl)ethyl]-2,3-dihydro-1H-isoindol-1-one], 101%.
